One may read the Kd as a measure of binding affinity in units of concentration. High values mean lower affinity, low ones higher affinity. As usually defined, the kon is the second-order rate constant of association. High values mean fast association, low ones slow association.

Series [1] relates to NIH3T3 cells (cGMP secreted). Briefly: EC50 for CNP-Fc constructs, cGMP ELISA of NIH3T3 supernatant. The following applies: NIH3T3, 30 minutes, 1.8 mM IBMX, cGMP secreted by the cells; FIG. 25B. The format is cell-based. The method, then:
EC50 for CNP-Fc described herein were measured by ELISA. 2.5E+05 NIH3T3 cells/well were plated. […] After 30 minutes, supernatant was collected for cGMP determined via ELISA. FIG. 25A illustrates a standard curve of cGMP.
A general note: In an ELISA, binding on a coated surface is turned into a signal by an enzyme label.

The conditions of series [2]: background statement; cited from earlier work.
Series [3] has as its target T1, Human NPR-B (Homo sapiens, UniProt P20594).
T1 construct: purchased R&D system
T1 sequence (P20594 23-458 limits assumed): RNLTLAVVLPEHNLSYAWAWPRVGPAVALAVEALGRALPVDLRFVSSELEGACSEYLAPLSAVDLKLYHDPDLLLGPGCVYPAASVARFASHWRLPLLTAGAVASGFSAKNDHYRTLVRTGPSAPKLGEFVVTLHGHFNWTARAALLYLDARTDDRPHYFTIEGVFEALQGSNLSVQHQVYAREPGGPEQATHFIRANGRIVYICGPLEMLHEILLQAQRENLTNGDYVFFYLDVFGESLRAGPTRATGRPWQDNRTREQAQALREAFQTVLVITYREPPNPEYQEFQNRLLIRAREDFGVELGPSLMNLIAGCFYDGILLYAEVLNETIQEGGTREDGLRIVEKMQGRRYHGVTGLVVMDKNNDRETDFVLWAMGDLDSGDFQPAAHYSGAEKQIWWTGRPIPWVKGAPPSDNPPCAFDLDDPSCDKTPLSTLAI
Kind of series: Biacore SPR kinetic affinity binding to immobilized NPR-B. As for the experimental part: The biological function of these purified protein was assayed for their stimulation of production of cGMP, using NPR-B receptor positive cell line, NIH/3T3 and NPR-B negative cell line HEK293 cells. The determination of cGMP was assay by ELISA using commercial CNP as standard curves. […] Surface preparation. NBR-B was immobilized at different levels in three flow cells via standard amine coupling, leaving Fc 1 unmodified to serve as a reference. All surface plasmon resonance (SPR) analysis was performed on a BIAcore 3000 system using series CM5 sensor chips. Data processing and analysis were performed using BIAevaluation software. All sensorgrams were double referenced by subtracting the response on a reference flow cell and a blank sample. Human NPR-B (R&D system) was covalently attached to a CM5 chip via amine coupling. A surface density of 6600 RU was used for measurements with natriuretic peptides Sequential injections of CNP (0.5-8 nM) were performed at a flow rate of […] (300 s for each), followed by a dissociation time of 900 s. […] Kinetic parameters were calculated assuming a simple 1:1 (Langmuir) binding. […] All SPR analysis was performed on a BIAcore 3000 system using series CM5 sensor chips. Data processing and analysis were performed using BIAevaluation software. All sensorgrams were double referenced by subtracting the response on a reference flow cell and a blank sample. Human NPR-B (R&D system) was covalently attached to a CM5 chip via amine coupling. A surface density of 3100 RU was used for measurements with natriuretic peptides Sequential injections of AMI263 (FC4-CNP) (0.125-2 nM) were performed at a flow rate of […] (300 s for each), followed by a dissociation time of 900 s. […] Kinetic parameters were calculated assuming a simple 1:1 (Langmuir) binding. […] All SPR analysis was performed on a BIAcore 3000 system using series CM5 sensor chips. Data processing and analysis were performed using BIAevaluation software. All sensorgrams were double referenced by subtracting the response on a reference flow cell and a blank sample. Human NPR-B (R&D system) was covalently attached to a CM5 chip via amine coupling. […] Kinetic parameters were calculated assuming a simple 1:1 (Langmuir) binding. […] All SPR analysis was performed on a BIAcore 3000 system using series CM5 sensor chips. Data processing and analysis were performed using BIAevaluation software. All sensorgrams were double referenced by subtracting the response on a reference flow cell and a blank sample. Human NPR-B (R&D system) was covalently attached to a CM5 chip via amine coupling. A surface density of 3100 RU was used for measurements with natriuretic peptides Sequential injections of AMI263 (FC4-CNP) (0.5-300 nM) were performed at a flow rate of […] (300 s for each), followed by a dissociation time of 900 s. […] Kinetic parameters were calculated assuming a simple 1:1 (Langmuir) binding. […] All SPR analysis was performed on a BIAcore 3000 system using series CM5 sensor chips. Data processing and analysis were performed using BIAevaluation software. All sensorgrams were double referenced by subtracting the response on a reference flow cell and a blank sample. Human NPR-B (R&D system) was covalently attached to a CM5 chip via amine coupling.
Background: In SPR one partner is held on a chip, and binding of the other changes the refractive index at the surface.

Series [4] deals with T2, NPR-B on NIH/3T3 cells (NPR-B receptor positive cell line) (UniProt Q6VVW5 17-1047, limits assumed).
T2 sequence (looked up): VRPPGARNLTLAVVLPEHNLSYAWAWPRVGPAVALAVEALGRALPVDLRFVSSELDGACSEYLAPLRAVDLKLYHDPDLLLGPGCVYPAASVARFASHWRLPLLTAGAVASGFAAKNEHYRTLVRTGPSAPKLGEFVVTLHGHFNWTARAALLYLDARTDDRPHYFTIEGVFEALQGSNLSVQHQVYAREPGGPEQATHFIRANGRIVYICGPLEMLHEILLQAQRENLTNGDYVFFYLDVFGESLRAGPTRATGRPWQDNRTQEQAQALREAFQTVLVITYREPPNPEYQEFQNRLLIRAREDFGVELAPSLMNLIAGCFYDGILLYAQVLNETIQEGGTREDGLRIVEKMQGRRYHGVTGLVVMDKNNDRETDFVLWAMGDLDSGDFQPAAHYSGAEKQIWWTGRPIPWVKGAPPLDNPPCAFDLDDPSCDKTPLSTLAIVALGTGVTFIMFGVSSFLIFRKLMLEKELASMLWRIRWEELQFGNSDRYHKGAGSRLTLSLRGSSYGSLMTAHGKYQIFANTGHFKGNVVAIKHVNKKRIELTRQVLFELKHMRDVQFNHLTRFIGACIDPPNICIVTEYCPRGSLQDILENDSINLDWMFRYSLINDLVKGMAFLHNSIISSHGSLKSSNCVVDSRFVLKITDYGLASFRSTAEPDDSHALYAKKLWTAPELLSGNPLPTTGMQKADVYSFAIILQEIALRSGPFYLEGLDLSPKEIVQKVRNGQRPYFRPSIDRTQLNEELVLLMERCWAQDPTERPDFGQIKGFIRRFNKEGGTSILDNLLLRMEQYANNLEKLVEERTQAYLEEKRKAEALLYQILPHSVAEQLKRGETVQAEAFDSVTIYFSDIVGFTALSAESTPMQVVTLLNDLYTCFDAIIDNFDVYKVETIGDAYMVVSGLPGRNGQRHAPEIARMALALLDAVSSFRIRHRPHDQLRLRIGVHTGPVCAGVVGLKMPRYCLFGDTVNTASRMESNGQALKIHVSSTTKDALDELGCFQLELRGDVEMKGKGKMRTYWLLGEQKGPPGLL
Briefly: cell-based or functional assay.

Series [5] has as its target T3, Human NPR-B (R&D system) (human, UniProt P20594 23-458, limits assumed).
T3 construct: Bought protein immobilised on the Biacore chip; also called NBR-B; natriuretic peptide receptor B
T3 sequence (looked up): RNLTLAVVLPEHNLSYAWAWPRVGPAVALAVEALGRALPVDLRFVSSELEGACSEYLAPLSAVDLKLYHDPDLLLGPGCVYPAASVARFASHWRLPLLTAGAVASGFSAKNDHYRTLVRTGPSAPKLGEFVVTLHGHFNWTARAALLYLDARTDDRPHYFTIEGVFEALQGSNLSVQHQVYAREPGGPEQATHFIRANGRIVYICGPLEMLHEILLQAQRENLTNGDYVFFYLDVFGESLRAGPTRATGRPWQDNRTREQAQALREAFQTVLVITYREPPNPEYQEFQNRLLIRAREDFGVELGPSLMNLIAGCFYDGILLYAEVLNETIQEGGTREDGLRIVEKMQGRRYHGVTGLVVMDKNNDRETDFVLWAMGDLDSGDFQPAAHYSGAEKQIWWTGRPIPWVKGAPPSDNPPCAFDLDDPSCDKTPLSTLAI
Kind of series: SPR (Biacore 3000), human NPR-B amine-coupled to CM5 chip, single-cycle kinetics, 1:1 Langmuir fit. The method, then:
Kinetic parameters were calculated assuming a simple 1:1 (Langmuir) binding. […] All SPR analysis was performed on a BIAcore 3000 system using series CM5 sensor chips. Data processing and analysis were performed using BIAevaluation software. All sensorgrams were double referenced by subtracting the response on a reference flow cell and a blank sample. Human NPR-B (R&D system) was covalently attached to a CM5 chip via amine coupling. […] Kinetic parameters were calculated assuming a simple 1:1 (Langmuir) binding. […] All SPR analysis was performed on a BIAcore 3000 system using series CM5 sensor chips. Data processing and analysis were performed using BIAevaluation software. All sensorgrams were double referenced by subtracting the response on a reference flow cell and a blank sample. Human NPR-B (R&D system) was covalently attached to a CM5 chip via amine coupling. […] Kinetic parameters were calculated assuming a simple 1:1 (Langmuir) binding. […] All SPR analysis was performed on a BIAcore 3000 system using series CM5 sensor chips. Data processing and analysis were performed using BIAevaluation software. All sensorgrams were double referenced by subtracting the response on a reference flow cell and a blank sample. Human NPR-B (R&D system) was covalently attached to a CM5 chip via amine coupling.

The target of series [6] is T2, NPR-B on NIH/3T3 cells (NPR-B receptor …). Kind of series: cell-based or functional assay. The source holds these as a separate data set.
For series [7], the target named is T3, Human NPR-B (R&D system). Kind of series: SPR (Biacore 3000), FIG. 7C, single-cycle kinetics, NPR-B at 6600 RU on CM5, CNP 0.5-8 nM; differs from Table 32. The method, then:
Kinetic parameters were calculated assuming a simple 1:1 (Langmuir) binding. […] All SPR analysis was performed on a BIAcore 3000 system using series CM5 sensor chips. Data processing and analysis were performed using BIAevaluation software. All sensorgrams were double referenced by subtracting the response on a reference flow cell and a blank sample. Human NPR-B (R&D system) was covalently attached to a CM5 chip via amine coupling. […] Kinetic parameters were calculated assuming a simple 1:1 (Langmuir) binding. […] All SPR analysis was performed on a BIAcore 3000 system using series CM5 sensor chips. Data processing and analysis were performed using BIAevaluation software. All sensorgrams were double referenced by subtracting the response on a reference flow cell and a blank sample. Human NPR-B (R&D system) was covalently attached to a CM5 chip via amine coupling. […] Kinetic parameters were calculated assuming a simple 1:1 (Langmuir) binding. […] All SPR analysis was performed on a BIAcore 3000 system using series CM5 sensor chips.

For the molecule `CC[C@H](C)[C@@H]1NC(=O)[C@H](CCCNC(=N)N)NC(=O)[C@H](CC(=O)O)NC(=O)[C@H](CC(C)C)NC(=O)[C@H](CCCCN)NC(=O)[C@H](CC(C)C)NC(=O)CNC(=O)[C@H](Cc2ccccc2)NC(=O)[C@@H](NC(=O)CNC(=O)[C@H](CCCCN)NC(=O)[C@H](CO)NC(=O)[C@H](CC(C)C)NC(=O)CN)CSSC[C@@H](C(=O)O)NC(=O)CNC(=O)[C@H](CC(C)C)NC(=O)CNC(=O)[C@H](CO)NC(=O)[C@H](CCSC)NC(=O)[C@H](CO)NC(=O)CNC1=O` [CNP-22, reference compound], the “EC50 values (rank order)” value in series [1] was “CNP-22 ≡Fc4-CNP36>Aflibercept-Fc4-CNP36>Fc1-CNP36>>Fc4-CNP22”. For the same molecule, the half-life entry in series [2] was “only a few minutes”. Moreover, the ka stood at 1.31e7 in series [3] ((FIG. 7C-7I)) and 1.37E+07 in series [3] (Table 32 summary of affinity). Besides, the kd in series [3] ((FIG. 7C-7I)) is reported as 4.74E-4; in series [3] (Table 32 summary of affinity), 4.74E−04.

As for GLSKGCFGLKLDRIGSMSGLGC (also called C-type natriuretic peptide) [CNP-22], the “EC50 (cGMP production, table 'EC50 NIH3T3 cells', row CNP-22)” value in series [4] was 11.8 nM. The molecule further displayed a Kd in series [5] of 0.0346 nM. Further, in series [6], the “EC50 (cGMP production, drawn table, row CNP-22)” value was determined as 11.8 nM and the “EC50 (read off the curve), cGMP production” value is approximately 10 nM. In series [7], this molecule came in with a Kd of 0.0363 nM and an on-rate constant (kon) of 1.31e+07 M⁻¹ s⁻¹.

The record behind these values is US20250099622A1, “COMPOSITIONS AND METHODS FOR EXPRESSING THERAPEUTICS” (priority 2022, published 2025).
